# Measured values from patent US4748175A, “Pyrimido[5,4-B][1,4]oxazine derivatives and pharmaceutical compositions containing them” (priority 1985, dated 1988).
# Counter-ions that a name gives are not always drawn. Like-named read-outs stand apart in the source and are kept apart here.
# Legend:
# [1] = tested on: open-chest, anaesthetized cats; assay: MCF-increasing effect in open-chest, anaesthetized cats (strain gauge arch on left ventricle); type: in vivo, cat; details: for change in vivo at 5 mg/kg: Felis catus, iv, 5 mg/kg i.v., open-chest anaesthetized cats, read-out: Increase in MCF as % of the initial value
# Procedure: (A) Investigation on anaesthetized cats
# The animals were intravenously (i.v.) anaesthetized by 30 mg/kg of pentobarbital-sodium. After arranging the artificial respiration, the chest and pericardium were opened. A strain gauge arch was sutured onto the epicardial surface of the left ventricle [J. Pharm. Exp. Ther. 90, 26 (1947)]. The blood pressure was measured by a catheter inserted to the femoral artery and joined to a P 23 Db pressure transducer and electromanometer. The test compounds were administered either i.v. through a femoral vein cannule, or intraduodenally (i.d.) through the duodenum cannule. At the beginning of the experiment, 0.2 μg/kg of isoproterenol (IS) was i.v. given as an internal standard for checking the myocardial reactivity. Namely, the value of the peak MCF response can also be altered according to the individual animals in the case of each positive inotropic agent. Thus, IS was not used as a real reference drug.
# The MCF responses were expressed in the percentage changes of the initial value: the effect on MCF of 5 mg/kg i.v. of the test compound was compared to that of 0.2 μg/kg i.v. of IS.
# [2] = tested on: patients; details: cited from earlier work
# [3] = tested on: anaesthetized open-chest dogs; assay: Investigation on anaesthetized open-chest dogs (MCF, coronary flow, blood pressure, heart rate); type: in vivo, dog
# Procedure: (B) Investigation on anaesthetized dogs
# The animals were i.v. anaesthetized by 35 mg/kg of pentobarbital-sodium. After opening the chest and pericardium, the lower ascending part of the left circumflex coronary artery was prepared and fitted with an electromagnetic flow probe for measuring the blood flow in the coronary artery. A strain gauge arch was placed onto the area supplied by this coronary artery for measuring the MCF. For determining the systemic blood pressure a femoral arterial cannule, for i.v. drug administration a femoral venous cannule was used. The dp/dt value was calculated from the pressure measured by a Millar type pressure transducer introduced to the left ventricle. All parameters were registered on a Beckman R 12 8-channel dynograph.
# [4] = Acute toxicity (LD50) in rats; details: rat, in vivo
# Source text: (§1) The acute toxicity data of compound 22 are given as LD50 values in Table 2.
# [5] = tested on: conscious cats; assay: Investigation on chronically catheterized conscious cats; type: in vivo, cat; details: oral 0.5 to 8.0 mg/kg
# Source text: (C) Investigation on conscious cats
# These animals were used according to either the method of Rabloczky and Mader ("Measurement of Systemic and Pulmonary Arterial Pressure in Conscious Animals", lecture on Congress of the International Union of Pharmacologists, Budapest, 1980) or to some modification thereof. The aorta and pulmonary artery were chronically catheterized for measuring both blood pressures. In the modification, the right ventricle was also catheterized for determining the dp/dtmax value.
# [6] = Acute toxicity (LD50) in mice; details: mouse, in vivo
# Source text: as §1
# [7] = tested on: Ca-ATP-ase; assay: Ca-ATP-ase activity ex vivo after 5 days i.p. treatment; type: in vivo; details: 2 mg/kg i.p. daily for 5 days; corrected to 1 g of heart tissue
# Procedure: The activity of this enzyme was measured according to Mc Namara [J. Biochem. 75, 795 (1974)].
# In another experiment, compound 22 was given in a 2 mg/kg i.p. daily dose for 5 days. After taking an ex vivo sample, the enzyme activity was found as decreased by 30% (as corrected to 1 g of heart tissue).
# [8] = tested on: ^45 Ca^2+ uptake into the sarcoplasma reticulum; assay: 45Ca2+ uptake into the sarcoplasma reticulum in the presence of ATP; type: biochemical; details: 10^-2 M
# Source text: EFFECT OF COMPOUND 22 ON THE ^45 Ca^2+ UPTAKE INTO THE SARCOPLASMA RETICULUM IN THE PRESENCE OF ATP
# The method of S. Harigaya [Circ. Res. 25, 761 (1969)] was used.
# [9] = target: T1, Na-K-ATP-ase (Homo sapiens, UniProt P05023); assay: Na-K-ATP-ase activity in sarcolemma preparations; type: biochemical; details: 10^-7 M, 50 mM Tris-HCl pH 7.5
# T1 construct: Sarcolemma preparations were made according to D. M. Bers; from tissue; host or cells: sarcolemma preparation (heart, from the cited Bers 1979 method and the context)
# Procedure: (§2) Sarcolemma preparations were made according to D. M. Bers [Biochem. Biophys. Acta 555, 131 (1979)]. NADH-dichlorophenol-reductase was determined by using a Centrifi-CHEM® enzyme-analyzer. The activity of Na-K-ATP-ase was measured in 50 mM Tris-HCl (at pH 7.5). […] The activity of these enzymes was not altered by even a 10^-4 M concentration of compound 22.
# [10] = tested on: NADH-dichlorophenol-reductase; assay: NADH-dichlorophenol-reductase (NADH oxydase) activity in sarcolemma preparations; type: biochemical; details: 10^-7 M
# Procedure: as §2
# [11] = patients suffering from chronic heart failure
molecule,measurement,setting,value
"Cc1nc(NCCCN2CCOCC2)c2c(n1)NC(=O)CO2 [Example 60, 2-Methyl-4-[3-(4-morpholinyl)-1-propyl]-amino-6,7-dihydro-8H-pyrimido[5,4-b][1,4]oxazin-7-one]",change in vivo at 5 mg/kg,[1],51%
"COc1cc([S+](C)[O-])ccc1-c1nc2ncccc2[nH]1 (stereo not drawn) [Sulmazole, 2-(2-methoxy-4-methylsulfinylphenyl)-1H-imidazo[4,5-b]pyridine]",side-effects,[2]; clinical tests,relatively frequent side-effects
1-(4-hydroxyphenyl)-3-tertiary-butylamino-2-propanol [Prenalterol],cardiac performance,[2]; chronic oral treatment,not improved
same,effect in acute cardiac insufficiency,"[2]; given intravenously, clinics",very effective
"Cc1nc(N2CCOCC2)c2c(n1)N(CC(O)CO)C(=O)CO2 (stereo not drawn) [Example 57, 8-(2,3-Dihydroxypropyl)-2-methyl-4-(4-morpholinyl)-6,7-dihydro-8H-pyrimido[5,4-b][1,4]oxazin-7-one]",change in vivo at 5 mg/kg,[1],45%
"Cc1nc(NCCO)c2c(n1)N(Cc1ccccc1)C(=O)CO2 [Example 69, 8-Benzyl-2-methyl-4-(2-hydroxyethyl)-amino-2-methyl-6,7-dihydro-8H-pyrimidino[5,4-b][1,4]oxazin-7-one]",change in vivo at 5 mg/kg,[1],66%
Cc1nc(Cl)c2c(n1)N(CC(O)CO)C(=O)CO2 (stereo not drawn) [Example 56],change in vivo at 5 mg/kg,[1],100%
CCOC(=O)CN1C(=O)COc2c(N)nc(C)nc21 [Example 73],change in vivo at 5 mg/kg,[1],50%
CCOC(=O)CN1C(=O)COc2c(NCCO)nc(C)nc21 [Example 37],change in vivo at 5 mg/kg,[1],55.5%
same,positive inotropic action after i.d. administration,"[1]; i.d., dose of both 20 mg/kg and 5 mg/kg",strong positive inotropic action
same,MCF increase,"[3]; 0.5 mg/kg i.v., dogs",56%
same,coronary flow increase,"[3]; 0.5 mg/kg i.v., dogs",34%
same,decrease in the systemic arterial blood pressure,"[3]; 0.5 mg/kg i.v., dogs",10 to 15%
same,tachycardia,"[3]; 0.5 mg/kg i.v., dogs",6 to 7%
same,MCF increase,"[3]; 1 mg/kg i.v., dogs",46%
same,coronary flow increase,"[3]; 1 mg/kg i.v., dogs",20%
same,duration of the coronary response,"[3]; 1 mg/kg i.v., dogs",10 min
same,heart rate increase (tachycardia),"[3]; 1 mg/kg i.v., dogs",13%
same,decrease in the systemic arterial blood pressure,"[3]; 1.0 mg/kg i.v., dogs",20%
same,duration of the MCF increase,"[3]; 1.0 mg/kg i.v., dogs",10 min
same,duration of the heart rate increase,"[3]; 1.0 mg/kg i.v., dogs",5 min
same,MCF increase,"[3]; 5 mg/kg i.d., dogs",about 30%
same,duration of the MCF increase,"[3]; 5 mg/kg i.d., dogs",60 min
Cc1nc2c(c(N(CCO)Cc3ccccc3)n1)OCC(=O)N2 [Example 11],change in vivo at 5 mg/kg,[1],83%
"Cc1nc(NCCO)c2c(n1)N(CC(=O)N1CCOCC1)C(=O)CO2 [Example 66, 4-(2-Hydroxyethyl)-amino-2-methyl-8-(4-morpholinylcarbonyl)-methyl-6,7-dihydro-8H-pyrimido[5,4-b][1,4]oxazin-7-one]",change in vivo at 5 mg/kg,[1],58.3%
"Nc1cc(-c2ccncc2)c[nH]c1=O [amrinone, 5-amino-(3,4'-bipyridin)-6(1H)-one]",cardiac output,[2]; [11],significantly increased
same,resistance of the peripheral vessels,[2]; [11],diminished
same,side-effects,[2]; therapeutic use,severe side-effects appearing in the blood picture
same,positive inotropic action compared with compound 22,"[3]; 2 mg/kg i.v. amrinone versus 0.4 mg/kg i.v. compound 22, dogs",not more effective than that of 0.4 mg/kg of compound 22
same,positive inotropic action after an acute myocardial ischaemia,[3]; anaesthetized open-chest dogs,significantly decreased
"Cc1nc(NCC2CN(Cc3ccccc3)CCO2)c2c(n1)NC(=O)CO2 (stereo not drawn) [Example 27, 4-[(4-Benzyl-2-morpholinyl)-methyl]-amino-2-methyl-6,7-dihydro-8H-pyrimido[5,4-b][1,4]oxazin-7-one dihydrochloride dihydrate]",change in vivo at 5 mg/kg,[1],130%
same,MCF increase,"[3]; 1 mg/kg i.v., dogs",40%
same,coronary flow increase,"[3]; 1 mg/kg i.v., dogs",20%
same,decrease in diastolic pressure,"[3]; 1 mg/kg i.v., dogs",20%
same,decrease in the systemic systolic arterial blood pressure,"[3]; 1 mg/kg i.v., dogs",10%
same,duration of the coronary response,"[3]; 1 mg/kg i.v., dogs",20 min
same,half-life of the MCF effect,"[3]; 1 mg/kg i.v., dogs",10 min
same,heart rate increase (tachycardia),"[3]; 1 mg/kg i.v., dogs",10%
same,MCF increase,"[3]; 5 mg/kg i.d., dogs",30%
same,duration of the MCF increase,"[3]; 5 mg/kg i.d., dogs",30 min
"CCCCOC(=O)CN1C(=O)COc2c(NCCO)nc(C)nc21 [Example 67, 8-(n-Butoxycarbonyl)methyl-4-(2-hydrocyethyl)amino-2-methyl-6,7-dihydro-8H-pyrimido[5,4-b][1,4]oxazin-7-one hydrochloride]",change in vivo at 5 mg/kg,[1],37%
"CC(C)NCC(O)c1ccc(O)c(O)c1 (stereo not drawn) [IS, isoproterenol, reference compound]",blood circulation parameters,"[1]; 0.2 μg/kg i.v., cats",did not influence
same,MCF response,"[1]; 0.2 μg/kg i.v., internal standard, cats",short-lasting and completely reversible
"Cc1nc(NCCN2CCOCC2)c2c(n1)NC(=O)CO2 [Example 22, 2-Methyl-4-[2-(4-morpholinyl)-ethyl]-amino-6,7-dihydro-8H-pyrimido[5,4-b][1,4]oxazin-7-one dihydrochloride]",LD50,"[4]; ip, Female",260 mg/kg
same,LD50,"[4]; ip, Male",315 mg/kg
same,LD50,"[4]; iv, Female",232 mg/kg
same,LD50,"[4]; iv, Male",253 mg/kg
same,LD50,"[4]; po, Female",810 mg/kg
same,LD50,"[4]; po, Male",830 mg/kg
same,peak increase in dp/dtmax,[5],about 60%
same,LD50,"[6]; ip, Female",573 mg/kg
same,LD50,"[6]; ip, Male",572 mg/kg
same,LD50,"[6]; iv, Female",340 mg/kg
same,LD50,"[6]; iv, Male",324 mg/kg
same,LD50,"[6]; po, Female",1420 mg/kg
same,LD50,"[6]; po, Male",1360 mg/kg
same,change in vivo at 5 mg/kg,[1],70%
same,MCF increase,[3]; 1 mg/kg i.d.,35 to 40%
same,MCF effect relative to amrinone,[3]; i.d. administration,at least 5 times
same,"Ca-ATP-ase enzyme activity decrease, ex vivo sample",[7],30%
Cn1c(=O)c2c(ncn2C)n(C)c1=O [caffeine],inhibition of Ca-uptake,[8],~25%
"CC(=O)CN1C(=O)COc2c(NCCO)nc(C)nc21 [Example 29, 4-(2-Hydroxyethyl)-amino-2-methyl-8-(2-oxopropyl)-6,7-dihydro-8H-pyrimido[5,4-b][1,4]oxazine-7-one]",change in vivo at 5 mg/kg,[1],40%
C[C@@H]1O[C@@H](O[C@H]2C[C@@H](O)[C@]3(CO)[C@H]4[C@H](O)C[C@]5(C)[C@@H](C6=CC(=O)OC6)CC[C@]5(O)[C@@H]4CC[C@]3(O)C2)[C@H](O)[C@H](O)[C@H]1O [Ouabain],Na-K-ATP-ase activity,[9],strongly inhibited
same,indophenol-reductase inhibition,[10],slightly
"CC(C)(C)NCC(O)c1ccc(O)c(CO)n1 (stereo not drawn) [Pirbuterol, 1-(5-hydroxy-6-hydroxymethyl-2-pyridyl)-2-tertiary-butylaminoethanol]",observation after a longer period of oral treatment,[2]; longer period,addiction was observed
same,effect during oral treatment,[2]; oral treatment for some weeks,favorable effect
